Consider 33 compounds from patent US20130303509A1, “NAMPT INHIBITORS” (AbbVie Inc., priority 2012, published 2013).

As usually defined, the IC50 is the midpoint of a concentration-inhibition curve.

The experiment deals with PC3 cells. Kind of experiment: NAMPT Cell Proliferation Assay. The note with it: Homo sapiens, PC-3, 120 h, 5 days incubation, cell viability by Cell Titer Glo. The experiment is classed as cell-based. Summed up:
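Seeded at 500 cells/well in RPMI with 10% heat-inactivated FBS and left to attach overnight at 37° C, 5% CO2. Compounds were added as 10-fold dilutions […] for 5 days, then viability was read by CellTiter-Glo. IC50s came from sigmoidal fits of percent inhibition.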
(Cellular ATP, detected with luciferase, serves as a proxy for viable cell number.)
With `CC(C)(C)C(=O)N1C2CCC1CC(c1ccc(NC(=O)C3CN(c4cccnn4)C3)cc1)C2` (stereo not drawn) [Example 844, N-{4-[8-(2,2-dimethylpropanoyl)-8-azabicyclo[3.2.1]oct-3-yl]phenyl}-1-(pyridazin-3-yl)azetidine-3-carboxamide], the IC50 worked out at 2.52 nM. In the case of `O=C(Nc1ccc(C2CCN(C(=O)c3ccc(C(F)(F)F)cc3)CC2)cc1)C1CN(c2cccnn2)C1` [Example 355, 1-(pyridazin-3-yl)-N-(4-{1-[4-(trifluoromethyl)benzoyl]piperidin-4-yl}phenyl)azetidine-3-carboxamide], the midpoint of inhibition, the IC50, lay at 9.79 nM. `O=C1CC[C@@H](C(=O)N2CCC(c3ccc(NC(=O)C4CN(c5cccnc5)C4)cc3)CC2)N1` [Example 114, N-{4-[1-(5-oxo-L-prolyl)piperidin-4-yl]phenyl}-1-(pyridin-3-yl)azetidine-3-carboxamide]: the IC50 amounted to 18.1 nM. For `O=C(Nc1ccc(C2CCN(C(=O)c3ccccc3)CC2)cc1)C1CN(c2cccnn2)C1` [Example 435, N-[4-(1-benzoylpiperidin-4-yl)phenyl]-1-(pyridazin-3-yl)azetidine-3-carboxamide], the IC50 amounted to 0.3 nM. This IC50 lies about 60-fold lower than the previous one. Under `CCCC(=O)N1CCC(c2ccc(NC(=O)C3CN(c4cccnc4)C3)cc2)CC1` [Example 134, N-[4-(1-butanoylpiperidin-4-yl)phenyl]-1-(pyridin-3-yl)azetidine-3-carboxamide] stands 0.64 nM. Under `Cc1ncccc1N1CC[C@H](C(=O)Nc2ccc(C3CCN(C(=O)c4ccccc4)CC3)cc2)C1` [Example 743, (3S)—N-[4-(1-benzoylpiperidin-4-yl)phenyl]-1-(2-methylpyridin-3-yl)pyrrolidine-3-carboxamide] stands 6620 nM; under `O=C(Nc1ccc(S(=O)(=O)C2CCN(C(=O)C3CCCC3)CC2)cc1)C1CN(c2cccnn2)C1` [Example 599, N-(4-{[1-(cyclopentylcarbonyl)piperidin-4-yl]sulfonyl}phenyl)-1-(pyridazin-3-yl)azetidine-3-carboxamide], 79.7 nM. With `O=C(Nc1ccc(C2CCN(C(=O)c3cc(C(F)(F)F)ccc3F)CC2)cc1)[C@H]1CCN(c2cccnn2)C1` [Example 703, (3S)-N-(4-{1-[2-fluoro-5-(trifluoromethyl)benzoyl]piperidin-4-yl}phenyl)-1-(pyridazin-3-yl)pyrrolidine-3-carboxamide], the IC50 turned out to be 8.43 nM. `CC(C)CCN1CCC(c2ccc(NC(=O)C3CN(c4cccnc4)C3)cc2)CC1` [Example 93, N-{4-[1-(3-methylbutyl)piperidin-4-yl]phenyl}-1-(pyridin-3-yl)azetidine-3-carboxamide] returned an IC50 of 58.4 nM. `O=C(Nc1ccc(OC2CCN(C(=O)C3CCCC3)CC2)cc1)C1CN(c2cccnc2)C1` [Example 52, N-(4-{[1-(cyclopentylcarbonyl)piperidin-4-yl]oxy}phenyl)-1-(pyridin-3-yl)azetidine-3-carboxamide]: the IC50 was determined as 6.28 nM.

With `O=C(Nc1ccc(C2CCN(C(=O)CC3CC3)CC2)cc1F)C1CN(c2cccnn2)C1` [Example 862, N-{4-[1-(cyclopropylacetyl)piperidin-4-yl]-2-fluorophenyl}-1-(pyridazin-3-yl)azetidine-3-carboxamide], half-maximal inhibition (IC50) was put at 8.49 nM. Take `N#Cc1ncccc1N1CC(C(=O)Nc2ccc(C3CCN(C(=O)c4ccccc4)CC3)cc2)C1` [Example 737, N-[4-(1-benzoylpiperidin-4-yl)phenyl]-1-(2-cyanopyridin-3-yl)azetidine-3-carboxamide]: the midpoint of inhibition, the IC50, lay at 1860 nM. Under `CC[C@H](C(=O)N1CCC(c2ccc(NC(=O)[C@H]3CCN(c4cccnn4)C3)cc2)CC1)c1ccccc1` [Example 632, (3S)-N-(4-{1-[(2S)-2-phenylbutanoyl]piperidin-4-yl}phenyl)-1-(pyridazin-3-yl)pyrrolidine-3-carboxamide] stands 8.81 nM; under `Cc1ncccc1N1CC(C(=O)Nc2ccc(C3CCN(C(=O)CN4CCOCC4)CC3)cc2)C1` [Example 164, 1-(2-methylpyridin-3-yl)-N-{4-[1-(morpholin-4-ylacetyl)piperidin-4-yl]phenyl}azetidine-3-carboxamide], 202 nM; under `CC(=O)N1CCC(c2ccc(NC(=O)[C@H]3CCN(c4cccnn4)C3)cc2)CC1` [Example 691, (3S)-N-[4-(1-acetylpiperidin-4-yl)phenyl]-1-(pyridazin-3-yl)pyrrolidine-3-carboxamide], 30 nM. `O=C(Nc1ccc(C2CCN(C(=O)Cc3cccc(C(F)(F)F)c3)CC2)cc1)C1CN(c2cccnn2)C1` [Example 403, 1-(pyridazin-3-yl)-N-[4-(1-{[3-(trifluoromethyl)phenyl]acetyl}piperidin-4-yl)phenyl]azetidine-3-carboxamide] showed an IC50 of 4.1 nM. Turning to `CC(C)Cn1cc(-c2ccc(C(=O)N[C@@H]3CCN(c4cccnc4)C3)s2)cn1` [Example 603, 5-[1-(2-methylpropyl)-1H-pyrazol-4-yl]-N-[(3R)-1-(pyridin-3-yl)pyrrolidin-3-yl]thiophene-2-carboxamide], the IC50 is 576 nM. Consider `O=C(Nc1ccc(OC2CCN(CCC3CC3)CC2)cc1)C1CN(c2cccnc2)C1` [Example 82, N-(4-{[1-(2-cyclopropylethyl)piperidin-4-yl]oxy}phenyl)-1-(pyridin-3-yl)azetidine-3-carboxamide], for which the IC50 is 9.55 nM. As for `O=C(Nc1ccc(C2CCN(C(=O)c3cscn3)CC2)cc1)C1CN(c2cccnn2)C1` [Example 430, 1-(pyridazin-3-yl)-N-{4-[1-(1,3-thiazol-4-ylcarbonyl)piperidin-4-yl]phenyl}azetidine-3-carboxamide], the IC50 was 1.42 nM.

The compound `O=C(Nc1ccc(O[C@@H]2CCN(C(=O)c3cccc(C(F)(F)F)c3)C2)cc1)C1CN(c2ccnnc2)C1` [Example 453, 1-(pyridazin-4-yl)-N-[4-({(3R)-1-[3-(trifluoromethyl)benzoyl]pyrrolidin-3-yl}oxy)phenyl]azetidine-3-carboxamide] registered an IC50 of 105 nM. For `O=C(Nc1ccc(S(=O)(=O)C2CCN(C(=O)CC3CC3)CC2)cc1)C1CN(c2cccnn2)C1` [Example 569, N-(4-{[1-(cyclopropylacetyl)piperidin-4-yl]sulfonyl}phenyl)-1-(pyridazin-3-yl)azetidine-3-carboxamide], the IC50 was found to be 207 nM. The compound `O=C(Nc1ccc(O[C@@H]2CCN(C(=O)C3CCC(F)(F)CC3)C2)cc1)[C@H]1CCN(c2cccnn2)C1` [Example 781, (3S)-N-[4-({(3R)-1-[(4,4-difluorocyclohexyl)carbonyl]pyrrolidin-3-yl}oxy)phenyl]-1-(pyridazin-3-yl)pyrrolidine-3-carboxamide] returned an IC50 of 10 nM. In the case of `O=C(Nc1ccc(C2CCN(C(=O)Cc3ccc(F)cc3F)CC2)cc1)C1CN(c2ccnnc2)C1` [Example 536, N-(4-{1-[(2,4-difluorophenyl)acetyl]piperidin-4-yl}phenyl)-1-(pyridazin-4-yl)azetidine-3-carboxamide], the IC50 turned out to be 6.14 nM. For the compound `CC(C)(C)CC(=O)N1CCC(c2ccc(NC(=O)C3CN(c4cccnn4)C3)cc2)CC1` [Example 327, N-{4-[1-(3,3-dimethylbutanoyl)piperidin-4-yl]phenyl}-1-(pyridazin-3-yl)azetidine-3-carboxamide], the IC50 is 1.23 nM.

The compound `CC(C)Cn1cc(-c2ccc(C(=O)NC3CN(c4cccnn4)C3)s2)cn1` [Example 315, 5-[1-(2-methylpropyl)-1H-pyrazol-4-yl]-N-[1-(pyridazin-3-yl)azetidin-3-yl]thiophene-2-carboxamide] displayed an IC50 of 86.8 nM. For `CCCC(=O)N1CCC(c2ccc(NC(=O)C3CN(c4cccnc4C)C3)cc2)CC1` [Example 194, N-[4-(1-butanoylpiperidin-4-yl)phenyl]-1-(2-methylpyridin-3-yl)azetidine-3-carboxamide] the value was 124 nM; for `O=C(Nc1ccc(O[C@@H]2CCN(C(=O)CCC(F)(F)F)C2)cc1)[C@H]1CCN(c2cccnn2)C1` [Example 782, (3S)-1-(pyridazin-3-yl)-N-(4-{[(3R)-1-(4,4,4-trifluorobutanoyl)pyrrolidin-3-yl]oxy}phenyl)pyrrolidine-3-carboxamide], 66.9 nM; for `O=C(Nc1ccc(C2CCN(C(=O)Cc3ccc(Cl)c(Cl)c3)CC2)cc1)C1CN(c2cccnn2)C1` [Example 374, N-(4-{1-[(3,4-dichlorophenyl)acetyl]piperidin-4-yl}phenyl)-1-(pyridazin-3-yl)azetidine-3-carboxamide], 6.32 nM. As to `CCC(CC)C(=O)N1CCC(c2ccc(NC(=O)[C@H]3CCN(c4cccnn4)C3)cc2)CC1` [Example 707, (3S)-N-{4-[1-(2-ethylbutanoyl)piperidin-4-yl]phenyl}-1-(pyridazin-3-yl)pyrrolidine-3-carboxamide], it took 6.93 nM to reach half-maximal inhibition (IC50). Regarding `Cc1ccc(F)cc1C(=O)N1CCC(c2ccc(NC(=O)[C@H]3CCN(c4cccnn4)C3)cc2)CC1` [Example 697, (3S)-N-{4-[1-(5-fluoro-2-methylbenzoyl)piperidin-4-yl]phenyl}-1-(pyridazin-3-yl)pyrrolidine-3-carboxamide], the IC50 amounted to 5.96 nM. The IC50 values of the last two compounds are within 1.5-fold of each other. Consider `CC(C)Cn1cc(-c2ccc(C(=O)N[C@H]3CCN(c4ccc(Cl)nn4)C3)o2)cn1` [Example 746, N-[(3S)-1-(6-chloropyridazin-3-yl)pyrrolidin-3-yl]-5-[1-(2-methylpropyl)-1H-pyrazol-4-yl]furan-2-carboxamide], for which the half-inhibitory concentration (IC50) was over 10000 nM.

In the case of `O=C(Nc1ccc(C2CCN(C(=O)c3cc(C(F)(F)F)ccc3Cl)CC2)cc1)C1CN(c2cccnn2)C1` [Example 395, N-(4-{1-[2-chloro-5-(trifluoromethyl)benzoyl]piperidin-4-yl}phenyl)-1-(pyridazin-3-yl)azetidine-3-carboxamide], the midpoint of inhibition, the IC50, lay at 2.14 nM. With `CC(C)CN1CCC(Oc2ccc(NC(=O)C3CN(c4cccnc4)C3)cc2)CC1` [Example 76, N-(4-{[1-(2-methylpropyl)piperidin-4-yl]oxy}phenyl)-1-(pyridin-3-yl)azetidine-3-carboxamide], inhibition was half-maximal at 19.1 nM (IC50).
